Source: patent publication US20250281413A1, “PHARMACEUTICAL COMPOSITION” (Novartis AG, priority 2021, published 2025)
Values after ≈ are worked out from the molar mass of the structure shown.

How the values were obtained:
Format in all cases: physicochemical
[1] = Dissolution rate of capsules filled with granule particles (paddle 50 rpm); settings: pH 3, 50 mg dose in 900 mL
Protocol: Variant P7 was selected as the optimized granule composition in terms of copovidone and SLS ratio, thus the amount to be sprayed on the inert substrate (carrier particle) allow a drug load of 20%, based on the total weight of the granule particle, in a reasonable processing time. The dissolution performance of the different variant of granule particle compositions was evaluated to ensure the dissolution profile was in a good range. The dissolution rate is measured by conventional method (paddle method according to Pharm. Eur. 2.9.3 “Dissolution Test for Solid Dosage Forms” or US Pharmacopeia <711> “Dissolution” or Japanese Pharmacopiea <6.10> “Dissolution Test), as it can be seen in FIG. 1 and FIG. 2, by adding the granule particles prepared as mentioned in Table 1 into capsules (e.g. hard gelatin capsule). […] Some of the tested capsules comprising the above mentioned granule particles, the disintegration and dispersion of the content was delayed, leading to a delayed dissolution rate (DR) profile at paddle 50 rpm. […]
In order to have a better understanding of the formulation/pH profile, the dissolution rate profiles of the formulations described in Table 2 and Table 3 were measured at pH 2, pH 3, pH 4.5 and pH 6.8. […]

[2] = pH dependent solubility of Compound (A)
[3] = Particle size of wet-media milled suspension by Photon Correlation Spectroscopy (PCS); settings: Example 7
Source text: The following examples illustrate the invention and provide support for the disclosure of the present invention without limiting the scope of the invention. • Analytical Centrifugation (AC), e.g., LUMiSizer, LUM GmbH Germany, SEPView 6.1.2570.2022. Wet dispersion method using purified water solution for dilution of suspension to appropriate attenuation level with about 10 to 70% transmission of first measurement profile. The reported results for X10, X50, X90 are intensity weighted. • Photon Correlation Spectroscopy (PCS), e.g., Zetasizer Nano ZS, Malver Panalytical Ltd., UK, Version 7.3. Wet dispersion method using 0.1 mM NaCl solution (in purified water) for dilution of suspension to appropriate attenuation level with about 2 to 9 attenuator index. The reported results for Xmean are intensity weighted. In particular, the attenuator index is 5. Preferably, the measurement is carried at 25° C. […]

percent of dose dissolved at plateau [1]: 90%
Biopharmaceutics classification system Class [2]: Class 2
solubility ([2]; pH 1.2, simulated gastric fluid): 3000 µg/mL (≈ 5910 µM)
solubility ([2]; pH 2, simulated gastric fluid): 300 µg/mL (≈ 591 µM)
solubility ([2]; pH 3, aqueous buffer): 3 µg/mL (≈ 5.91 µM)
particle size of the DS in wet media milled before dilution for spray granulation [3]: 123 nm
SMILES: C=CC(=O)N(C)CCOc1c(N)ncnc1-c1cc(F)cc(NC(=O)c2ccc(C3CC3)cc2F)c1C [Compound (A), N-(3-(6-amino-5-(2-(N-methylacrylamido)ethoxy)pyrimidin-4-yl)-5-fluoro-2-methylphenyl)-4-cyclopropyl-2-fluorobenzamide]
